Source: publication PMC11850249, “Typical and atypical metabolic characteristics of three iridaceae isoflavone components: in vitro and in silico studies” (Frontiers in Pharmacology, 2025)
Values joined by “and” are separate entries in the source; they are usually repeats but may differ in a detail not shown here. Equal entries are not always repeated. Where two headings read alike, the source gives them in different places.

Assays:
[1] = tested on: human liver microsomes (HLMs); assay: Enzyme kinetics in HLMs; type: in vitro ADME; settings: for Km: n = 3, read-out: Km for metabolite formation
Description: (§1) A series of concentrations (1–300 μM) of tectorigenin, irigenin, or irisflorentin were added to HLMs or recombinant enzymes. Nonlinear regression was performed on the substrate concentration and generation rate of metabolites to investigate the enzymatic kinetic characteristics of these components in the metabolic system. All experiments were carried out in triplicate.
(§2) A Waters AQUITY UPLC system (Waters, Milford, MA, United States) equipped with a Dikma ODS C18 column (150 × 4.6 mm, 5 μm) was used for separation at 30°C. The binary mobile phase consisted of A (an aqueous solution containing 0.1% acetic acid and 2 mM ammonium acetate) and B (acetonitrile) at a flow rate of 1 mL/min. The elution settings were as follows: 0 → 5 min: 10% B → 20% B; 5 min → 20 min: 20% B → 50% B; 20 min → 21 min: 50% B → 60% B; 21 min → 25 min: 60% B → 90% B; 25 min → 25.1 min 90%–10% B; 25.1 min → 30 min 10% B. Flow rate: 1 mL/min 260 nm was used as the detection wavelength. Calibration standard curves were generated using a reaction mixture containing tectorigenin, irigenin, or irisflorentin at a concentration range of 0.03–10 µM. The concentrations of the metabolites were calculated using a standard curve of the substrates.
(§3) GraphPad Prism software 5.0 was used to perform non-linear fitting between the metabolite generation rate (V) and substrate concentration [S]. The appropriateness of the enzyme kinetic model was determined using R ^2 and the Eadie-Hofstee fit. The maximum metabolic rate (Vmax) and Michaelis constant (Km) were obtained for kinetic processes that conformed to the Michaelis–Menten model (Equation 1). For kinetic processes that conform to the sigmoidal kinetics model (Equation 2), Vmax, Hill coefficient (n), and S50, concentrations at 50% Vmax were obtained. Intrinsic clearance (Clint) was calculated according to Equation 3 (for the Michaelis–Menten model) and Equation 4 (for the sigmoidal kinetics model). All data are expressed as mean ± Standard Error (SE). One - way analysis of variance was used to compare the differences between different groups. A p-value below 0.05 was regarded as statistically significant. V=VmaxS/Km+S (1) V=Vmax+C^n/S50n+C^n (2) Clint=Vmax/Km (3) Clint=Vmax/S50×n−1/nn−1^1/n (4)

[2] = tested on: recombinant CYP enzymes (CYP1A2, CYP2A6, CYP2C8, CYP2C9, CYP2C19, CYP2D6, CYP2E1, CYP3A4); assay: Reaction phenotyping with recombinant CYP enzymes; type: in vitro ADME, human
Description: To assess the role of CYP enzymes to isoflavone metabolism, tectorigenin, irigenin, or irisflorentin (100 μM) was co-incubated with 25 pmol of recombinant CYP enzymes (CYP1A2, CYP2A6, CYP2C8, CYP2C9, CYP2C19, CYP2D6, CYP2E1, and CYP3A4) and MgCl2 (10 mM) in Tris-HCl buffer. The samples were pre-incubated at 37°C for 5 min, and the reaction was initiated by the addition of NADPH. After 30 min of incubation, the supernatant obtained by centrifugation after adding methanol to the incubated sample was analyzed by HPLC. All experiments were carried out in triplicate.

CYP2C19 = target: T1, CYP2C19 (Homo sapiens, UniProt P33261); assay: Enzyme kinetics with recombinant CYP2C19; type: in vitro ADME
T1 construct: purchased CYPEX (Dundee, United Kingdom)
Description: as §1
(§4) A Waters AQUITY UPLC system (Waters, Milford, MA, United States) equipped with a Dikma ODS C18 column (150 × 4.6 mm, 5 μm) was used for separation at 30°C. The binary mobile phase consisted of A (an aqueous solution containing 0.1% acetic acid and 2 mM ammonium acetate) and B (acetonitrile) at a flow rate of 1 mL/min. […] The concentrations of the metabolites were calculated using a standard curve of the substrates.
(§5) GraphPad Prism software 5.0 was used to perform non-linear fitting between the metabolite generation rate (V) and substrate concentration [S]. The appropriateness of the enzyme kinetic model was determined using R ^2 and the Eadie-Hofstee fit. […] Intrinsic clearance (Clint) was calculated according to Equation 3 (for the Michaelis–Menten model) and Equation 4 (for the sigmoidal kinetics model). All data are expressed as mean ± Standard Error (SE). […]

CYP isoenzymes in HLMs = assay: Inhibition by chemical CYP inhibitors in HLMs; type: in vitro ADME, human
Description: To investigate the role of specific CYP subtypes in metabolism, tectorigenin, irigenin, or irisflorentin (100 μM) was co-incubated with HLMs (0.5 mg protein/mL), NADPH (1 mM), and MgCl2 (10 mM) in the presence of known CYP inhibitors. The inhibitors used were α-Naph (20 μM) for CYP1A2 ([Zhang Y. J. et al., 2021]), Tryp (2 μM) for CYP2A6 ([Rodríguez-Morató et al., 2017]), Spz (10 μM) for CYP2C9 ([Berger et al., 2018]), Ticlo (2 μM) for CYP2B6 and 2C19 ([Yang et al., 2019]), Qd (8 μM) for CYP2D6 ([Martin et al., 2022]), DDC (100 μM) for CYP2E1 ([Zhang X. et al., 2021]), and KCZ (1 μM) for CYP3A4 ([Berger et al., 2018]). Finally, the samples obtained by centrifugation after adding ice-cold methanol to the incubated samples were analyzed using HPLC. Samples without inhibitors were used as controls to calculate the inhibition rates. Each inhibitor group and the control group were compared. All experiments were carried out in triplicate.

rat liver microsomes = tested on: rat liver microsomes; parameters: method as in Zhang Y. J. et al., 2021; settings: ref Zhang Y. J. et al., 2021; cited from earlier work
[3] = tested on: human liver microsomes (HLMs); assay: Metabolic stability and metabolite identification in HLMs; type: in vitro ADME; settings: 30 min
Description: To analyze the metabolic stability, a phase I metabolic system was established. Tectorigenin, irigenin, or irisflorentin (100 μM) was pre-incubated at 37°C with Tris-HCl buffer solution (50 mM), MgCl2 (10 mM), and HLMs (0.5 mg protein/mL). After 5 min, NADPH (1 mM) was added to start the metabolic reactions. After incubation for 30 min, an equal volume of methanol was added to terminate the reaction. After centrifugation, the supernatant was used for metabolite analysis. By comparing the high-performance liquid chromatography (HPLC) chromatograms of the samples incubated for 0 and 30 min to determine the generation of metabolites, mass spectrometry information for the metabolites was obtained using an UPLC-linear ion Trap-Orbitrap Mass Spectrometry method.
A UPLC system coupled with an LTQ-Orbitrap mass spectrometer (Thermo Fisher Scientific, Waltham, MA, United States) was used. The mass spectrometer was equipped with an electrospray ionization source operating in negative ion mode for tectorigenin and irigenin, and in positive ion mode for irisflorentin. The following parameter settings were used: sheath gas flow rate, 45 arb; auxiliary gas flow rate, 15 arb; capillary temperature, 350°C; spray voltage, 3.8 kV; and heating component temperature, 300°C. Xcalibur software (Thermo Fisher Scientific) was employed to acquire and process the data.

CYP1A2 = target: T2, CYP1A2 (Homo sapiens, UniProt P05177); assay: Enzyme kinetics with recombinant CYP1A2; type: in vitro ADME
T2 construct: purchased CYPEX (Dundee, United Kingdom)
T2 sequence (P05177 1-516): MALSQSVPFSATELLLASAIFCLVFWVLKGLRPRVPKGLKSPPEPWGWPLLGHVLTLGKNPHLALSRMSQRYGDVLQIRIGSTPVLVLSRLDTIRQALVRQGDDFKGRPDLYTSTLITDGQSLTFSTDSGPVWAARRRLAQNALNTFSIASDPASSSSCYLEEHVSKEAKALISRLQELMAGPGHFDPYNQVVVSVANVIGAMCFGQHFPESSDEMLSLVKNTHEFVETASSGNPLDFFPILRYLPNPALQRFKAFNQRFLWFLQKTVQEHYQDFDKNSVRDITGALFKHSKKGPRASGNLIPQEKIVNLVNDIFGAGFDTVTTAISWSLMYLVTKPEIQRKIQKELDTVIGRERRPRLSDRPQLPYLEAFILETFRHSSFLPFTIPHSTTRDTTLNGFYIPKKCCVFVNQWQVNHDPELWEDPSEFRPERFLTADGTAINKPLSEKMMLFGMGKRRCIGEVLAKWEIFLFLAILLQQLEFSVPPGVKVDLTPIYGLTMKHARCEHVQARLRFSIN
Description: as §1, §4, §5

Enzyme kinetics in HLMs = type: in vitro ADME, human; settings: human, human liver microsomes, calculated from Vmax and Km or S50, read-out: Clint for metabolite formation
Description: as §1, §2, §3

CYP3A4 = target: T3, CYP3A4 (Homo sapiens, UniProt P08684); assay: Enzyme kinetics with recombinant CYP3A4; type: in vitro ADME
T3 construct: purchased CYPEX (Dundee, United Kingdom)
Description: as §1, §4, §5

CYP2E1 = target: T4, CYP2E1 (Homo sapiens, UniProt P05181); assay: Enzyme kinetics with recombinant CYP2E1; type: in vitro ADME
T4 construct: purchased CYPEX (Dundee, United Kingdom)
Description: as §1, §4, §5

[4] = Michaelis-Menten model, mean ± SE

T3 sequence (P08684 whole entry): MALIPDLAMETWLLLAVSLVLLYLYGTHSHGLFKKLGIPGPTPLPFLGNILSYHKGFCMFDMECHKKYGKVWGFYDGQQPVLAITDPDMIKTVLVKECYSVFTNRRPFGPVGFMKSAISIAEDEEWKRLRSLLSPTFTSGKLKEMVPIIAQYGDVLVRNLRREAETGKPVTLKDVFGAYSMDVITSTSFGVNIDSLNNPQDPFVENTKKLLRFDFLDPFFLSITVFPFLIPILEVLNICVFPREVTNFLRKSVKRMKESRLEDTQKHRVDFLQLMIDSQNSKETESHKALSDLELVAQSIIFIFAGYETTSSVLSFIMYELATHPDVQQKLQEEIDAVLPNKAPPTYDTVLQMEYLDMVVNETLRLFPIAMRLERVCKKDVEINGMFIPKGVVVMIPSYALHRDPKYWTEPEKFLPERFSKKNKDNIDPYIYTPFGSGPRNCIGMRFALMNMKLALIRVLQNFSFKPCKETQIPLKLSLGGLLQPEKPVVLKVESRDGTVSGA
T1 sequence (P33261 whole entry): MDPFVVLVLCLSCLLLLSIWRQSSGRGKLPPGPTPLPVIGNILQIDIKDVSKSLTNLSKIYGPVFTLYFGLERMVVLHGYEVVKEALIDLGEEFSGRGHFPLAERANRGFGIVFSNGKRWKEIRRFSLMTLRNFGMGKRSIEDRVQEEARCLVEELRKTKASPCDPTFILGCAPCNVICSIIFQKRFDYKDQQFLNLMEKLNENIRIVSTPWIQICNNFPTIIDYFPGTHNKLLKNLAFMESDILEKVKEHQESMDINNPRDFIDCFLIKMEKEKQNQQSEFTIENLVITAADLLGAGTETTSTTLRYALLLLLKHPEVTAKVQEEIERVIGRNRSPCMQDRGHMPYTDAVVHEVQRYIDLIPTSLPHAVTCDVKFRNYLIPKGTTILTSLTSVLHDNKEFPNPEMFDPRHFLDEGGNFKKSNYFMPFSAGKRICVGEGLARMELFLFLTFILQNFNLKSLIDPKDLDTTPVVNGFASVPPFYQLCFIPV
T4 sequence (P05181 whole entry): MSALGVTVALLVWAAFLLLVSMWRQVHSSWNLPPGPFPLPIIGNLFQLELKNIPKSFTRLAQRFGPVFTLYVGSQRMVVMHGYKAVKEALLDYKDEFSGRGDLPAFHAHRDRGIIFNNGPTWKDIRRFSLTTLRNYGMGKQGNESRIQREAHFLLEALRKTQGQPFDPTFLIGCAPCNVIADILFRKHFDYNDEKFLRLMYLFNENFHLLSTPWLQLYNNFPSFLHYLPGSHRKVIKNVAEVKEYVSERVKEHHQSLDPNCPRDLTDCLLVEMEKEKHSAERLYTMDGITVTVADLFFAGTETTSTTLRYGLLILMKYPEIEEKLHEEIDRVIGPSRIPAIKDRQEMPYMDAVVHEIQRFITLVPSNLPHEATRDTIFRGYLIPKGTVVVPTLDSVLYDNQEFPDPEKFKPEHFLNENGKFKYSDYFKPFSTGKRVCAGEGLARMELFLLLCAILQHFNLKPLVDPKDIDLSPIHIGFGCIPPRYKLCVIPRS

COc1cc(-c2coc3cc(O)c(OC)c(O)c3c2=O)cc(O)c1OC [Irigenin]
enzyme kinetic model (Eadie-Hofstee plot) [1]: Michaelis–Menten equation | Vmax for metabolite formation ([1]; Michaelis-Menten model, mean ± SE, n = 3): 263 ± 13.6 pmol/min/mg | Km [1, 4]: 17.5 ± 3.2 µM | recombinant CYP subtypes that catalyze metabolite formation ([2]; 100 μM substrate, 25 pmol recombinant CYP, 30 min, eight subtypes measured): CYP3A4, CYP2C9, and CYP2C19 | metabolism by CYP2C19 relative to CYP2C9 and CYP3A4 ([2]; recombinant enzymes, CYP2C19 vs CYP2C9 and CYP3A4): 10–29 times | Clint (CYP2C19): 0.5 μL/min/pmol CYP | effect of Ticlo on metabolite formation (in words) (CYP isoenzymes in HLMs): significantly inhibited

COc1cc(-c2coc3cc4c(c(OC)c3c2=O)OCO4)cc(OC)c1OC [Irisflorentin]
Hill coefficient (rat liver microsomes): 1.48 | enzyme kinetic model (Eadie-Hofstee plot) [1]: sigmoidal kinetics characteristic | Vmax for metabolite formation ([1]; mean ± SE, n = 3): 235.4 ± 3.2 pmol/min/mg protein | Hill coefficient (n) ([1]; sigmoidal kinetics model): 1.8 ± 0.1 | S50 ([1]; sigmoidal kinetics model, mean ± SE, n = 3): 32.9 ± 1.0 µM | metabolism by CYP1A2 relative to CYP2C9, CYP2C19 and CYP3A4 ([2]; human, 30 min, 100 μM): 21–55 times | recombinant CYP subtypes that catalyze metabolite formation ([2]; human, 30 min, 100 μM): CYP1A2, CYP2C19, and CYP3A4 | major metabolite after incubation with HLMs ([3]; human, 100 μM): 6,7-dihydroxy-5,3′,4′,5′-tetramethoxy isoflavone | effect of Ticlo on metabolite formation (in words) (CYP isoenzymes in HLMs): no effect or a weak inhibitory effect | effect of α-Naph on metabolite formation (in words) (CYP isoenzymes in HLMs): strong inhibition | Hill coefficient (CYP1A2; recombinant CYP1A2, sigmoidal kinetics): 1.5 ± 0.1 and 1.5 | Clint (CYP1A2; recombinant CYP1A2, sigmoidal kinetics model): 1.5 μL/min/pmol CYP

COc1c(O)cc2occ(-c3ccc(O)cc3)c(=O)c2c1O [Tectorigenin]
microsomal CLint (Enzyme kinetics in HLMs): 2.6 µL/min/mg | enzyme kinetic model (Eadie-Hofstee plot) [1]: Michaelis–Menten equation | Km [1, 4]: 106 ± 7.3 µM | Vmax for metabolite formation ([1]; mean ± SE, n = 3): 275.9 ± 7.6 pmol/min/mg protein | production of metabolites by CYP2E1 and CYP3A4 relative to the other subtypes ([2]; human, 30 min, 100 μM): 3–38 times | recombinant CYP subtypes that catalyze metabolite formation ([2]; human, 30 min, 100 μM): CYP1A2, CYP2C19, CYP2E1, and CYP3A4 | Clint (CYP3A4): 0.2 μL/min/pmol CYP | Clint (CYP2E1): 0.2 μL/min/pmol CYP | major metabolite after incubation with HLMs ([3]; 100 μM substrate, HLMs 0.5 mg protein/mL, NADPH 1 mM): hydroxylation metabolite of tectorigenin | effect of Ticlo on metabolite formation (in words) (CYP isoenzymes in HLMs; inhibitor Ticlo (CYP2B6 and 2C19 inhibitor), HLMs): no effect or a weak inhibitory effect | effect of α-Naph on metabolite formation (in words) (CYP isoenzymes in HLMs; inhibitor α-Naph (CYP1A2 inhibitor), HLMs): slight inhibition
